Experimental data published in publication PMC9866629, “Pharmacokinetics of Novel Furoxan/Coumarin Hybrids in Rats Using LC-MS/MS Method and Physiologically Based Pharmacokinetic Model” (Molecules, 2023).
Values joined by “and” are separate entries in the source; they are usually repeats but may differ in a detail not shown here. Identical values can stand only once. Like-named read-outs stand apart in the source and are kept apart here.

Experiments:
[1] = In vitro intrinsic clearance, disappearance via rat liver microsomes; format: in vitro ADME; settings: for microsomal CLint: Sprague Dawley, rat, pooled liver microsomes, pH 7.4, rat hepatic microsomes; for microsomal CLint / CLint: Vmax divided by Km; for Km at 20 min: pooled rat liver microsomes, pH 7.4; for Km at 20 min / Vmax: rat hepatic microsomes 0.2 mg protein/mL, NADPH 1 mM, 20 min; for CLint: rat hepatic microsomes
Protocol: The incubation mixture with a final volume of 50 μL contained the testing compound, rat liver microsomes (0.2 mg protein/mL), phosphate buffer ([…], pH 7.4), and NADPH (1 mM). Before adding NADPH, the reaction mixture was preincubated in a shaking water bath at 37 °C for 5 min. 200 μL of methanol–acetonitrile mixture (1:1) containing IS was added to terminate the reaction after incubation for 20 min. Concentration of the testing compound was determined by LC-MS/MS after centrifugation at 14,000 rpm for 15 min. […] All experiments were performed in triplicate.
(§1) Vmax and Km were estimated via the nonlinear regression of the Michaelis–Menten model by using GraphPad Prism (Version 6.01, http://www.graphpad.com/). The PK parameters were determined from drug plasma concentration-time data by employing a noncompartmental approach using Phoenix WinNonlin (version 3.0).

[2] = Pharmacokinetic study after intravenous administration to rats; format: in vivo, rat; settings: for clearance / AUC(0-inf) / Cmax / MRT / Tmax / Vd / half-life / AUC(0-t): rat, plasma; for AUC(0-t): read-out: AUC(0–24 h)
Protocol: Rats were randomly divided into three groups, namely A, B, and C, with six rats in each group. […] Blood samples (0.15–0.2 mL) were collected through the femoral artery into an Eppendorf tube moistened with heparinized 0.9% NaCl before intravenous injection (0 h) and at 0.083, 0.25, 0.5, 1, 2, 4, 8, 12, and 24 h after intravenous injection. The blood sample was immediately centrifuged at 3000 rpm for 10 min at a temperature of 4 °C, and the upper plasma sample was collected and stored at −80 °C until analysis.
The plasma samples were thawed at room temperature before determination. Further, 20 μL of plasma was pipetted into a 1.5 mL Eppendorf tube, and 80 μL of methanol–acetonitrile (1:1, v/v) solution containing 200 ng/mL IS was added to precipitate the proteins. The contents were mixed thoroughly via vortexing the plasma sample for 40 s. The supernatant was aspirated for LC-MS/MS analysis after centrifugation at 14,000 rpm for 15 min.
as §1

[3] = PBPK modeling (Simcyp Rat); settings: blood, intravenous, in rats, calculated on the basis of B/P and the plasma clearance rate, read-out: liver blood clearance
Source text: PBPK models were constructed with physical chemistry and in vitro PK parameters, such as molecular weight (MW), octanol–buffer partition coefficient (log Po:w), compound type, pKa, B/P, fu, and CLint, using Simcyp (Simcyp Rat Version 16, Sheffield, UK). Two physical chemistry parameters of log Po:w and pKa were predicted on the basis of the structure of the chemicals by using the ADMET Predictor (v.9.0, Lancaster, http://www.simulations-plus.com/, accessed on 9 September 2019). Other parameters, including B/P, fu, and CLint, were obtained through in vitro experiments as mentioned above. The time course of xenobiotic concentration in plasma was simulated, and the PBPK models were further optimized on the basis of the experimental in vivo PK parameters (AUC, Cmax, and time to reach Cmax (Tmax)). The prediction accuracy of the PBPK model was evaluated by introducing the deviation (fold error) of the predicted PK parameters and comparing them with the experimental ones. The equation of the fold error is shown below. A simulation with fold errors no greater than 2 is acceptable [36, 42]. (1) fold error=observed parameter/predicted parameter;if observed value>predicted value (2) fold error=predicted parameter/observed parameter;if predicted value>observed value

[4] = Stability test of QC plasma samples (LC-MS/MS validation); format: physicochemical, rat; settings: QC plasma samples 20–800 ng/mL, frozen at −80 °C for one week, n = 5
Protocol: The concentration of the testing compound was calculated by using the calibration curves with seven dots (10, 25, 50, 100, 250, 500, and 1000 ng/mL). The calibration line was constructed by plotting the peak area ratio (y-axis) of analytes to IS versus the nominal concentration (x-axis). The specificity and selectivity were investigated by comparing the chromatograms of blank plasma samples with the corresponding samples spiked with testing compounds. The signal-to-noise ratio (S/N) of the lower limit of quantification (LLOQ) was at least at 10. The linearity of the calibration graph was validated, and the calculated concentrations of the calibration standards should be all within ±15% of the nominal value, except for the LLOQ of ±20%. The linear correlation coefficient (R^2) should be 0.9900 or greater. The intra- and interday precisions and accuracy of the method were assessed by determining the quality control (QC) samples of […] (six samples at each concentration level) over 3 consecutive days. The coefficient of variation (CV) should not exceed 20% at LLOQ and should be within 15% for QCs. The relative error (RE) should be within 80%–120% at LLOQ and within 85%–115% for QCs. Recovery was assessed by comparing peak area of nominal QC plasma samples with peak area of the spike-after extraction samples (six samples at each concentration level). The matrix effect was evaluated by comparing peak area of the spike-after extraction samples with that of the analytes spiked in pure water (six samples at each concentration level). The recovery and matrix factor should be within 85%–115%. The variation in recovery and matrix effect should be less than 15%. The dilution integrity test was performed for samples exceeding the upper limit of quantification (ULOQ). QCs were prepared (5 samples at each concentration level) and frozen at […] for one week. LC-MS/MS analysis was performed to calculate the stability (RE). Samples of 25 μg/mL (n = 6) were diluted with blank matrix to 0.5 μg/mL, which was within the calibration line range, and the RE should be within 85–115%.

[5] = Free drug fraction (fu) in rat plasma by ultrafiltration; format: in vitro ADME
Protocol: The fu of furoxan/coumarin hybrids in plasma was measured through the ultrafiltration method by using Amicon Ultra-15 ultrafiltration centrifuge tube (0.5 mL, 3-kDa membrane, Millipore, Bedford, MA, USA). […] One batch was incubated in a shaking water bath at 37 °C for 30 min, and the other batch was incubated for 60 min. After incubation, a plasma sample was transferred into ultrafiltration tube and centrifuged at 10,000 rpm for 20 min. The free compound in the filtrated fraction was determined directly by LC-MS/MS. All experiments were performed in triplicate.

[6] = Blood-to-plasma concentration ratio (B/P) in rat blood; format: in vitro ADME; settings: 37 °C, 1 μg/mL (CY-14S-4A83, CY-16S-4A43), 5 μg/mL (CY-16S-4A93)
Protocol: Two batches of blood samples were prepared in parallel. One batch of the blood samples was then incubated in a shaking water bath at 37 °C for 30 min, and the other batch was incubated for 60 min. After incubation, one 150 μL aliquot of blood samples was centrifuged at 1500 rpm for 5 min, and the concentrations of the testing compound in the resulting plasma portion after extraction were determined by LC-MS/MS. In parallel, another 50 uL aliquot of the blood incubation sample was transferred into an Eppendorf tube and lysed by three-cycle freeze/thaw method. After the cell-lysis and extraction, the concentration of testing compound in the whole blood sample was determined by LC-MS/MS. The B/P was determined directly by the ratio of drug concentration in the whole blood to the plasma concentration. All experiments were performed in triplicate.

[7] = 1.67 mg/kg, experimental value compared with PBPK prediction, read-out: experimental CL
[8] = single dose 1.67 mg/kg, read-out: CL (converted)

Structure (SMILES): Cc1c(Cc2ccc(C(F)(F)F)cc2)c(=O)oc2cc(OCCOc3no[n+]([O-])c3S(=O)(=O)c3ccccc3)ccc12 [CY-16S-4A93]
- microsomal CLint [1]: 174 µL/min/mg
- Km at 20 min [1]: 1.3 ± 0.2 µM
- Vmax [1]: 220.0 pmol/min/mg Protein
- Vmax ([1]; listed as CY-14S-4A93): 220.0 ± 14.1 pmol/min/mg Protein
- CLint ([1]; listed as CY-14S-4A93): 173.83 µL/min/mg
- plasma concentration within 24 h (stays above LLOQ) ([2]; 1.67 mg/kg): > 10 ng/mL
- clearance [2, 7]: 2.08 mL/min
- AUC(0-inf) ([2]; single dose 1.67 mg/kg): 3850 ± 1770 ng·h/mL
- Cmax ([2]; single dose 1.67 mg/kg): 9380 ± 4210 ng/mL
- MRT ([2]; single dose 1.67 mg/kg): 132 ± 42 min
- Tmax ([2]; single dose 1.67 mg/kg): 6 min
- Vd ([2]; single dose 1.67 mg/kg): 0.68 ± 0.38 L/kg
- half-life ([2]; single dose 1.67 mg/kg): 54 ± 12 min
- AUC(0-t) ([2]; single dose 1.67 mg/kg): 3850 ± 1770 ng·h/mL
- clearance [2, 8]: 8.34 mL/min/kg
- clearance [3]: 0.24 mL/min
- Stability (RE) [4]: 86.5–94.7%

Structure (SMILES): Cc1c(Cc2ccc(C#N)cc2)c(=O)oc2cc(OCCOc3no[n+]([O-])c3S(=O)(=O)c3ccccc3)ccc12 [CY-16S-4A43]
- microsomal CLint [1]: 333 µL/min/mg
- Km at 20 min [1]: 1.4 ± 0.3 µM
- Vmax [1]: 481.2 pmol/min/mg Protein and 481.2 ± 30.0 pmol/min/mg Protein
- time within which plasma concentration dropped to less than 10 ng/mL ([2]; 1.67 mg/kg): 2 to 4 h
- clearance [2, 7]: 10.9 mL/min
- AUC(0-inf) ([2]; single dose 1.67 mg/kg): 673 ± 182 ng·h/mL
- Cmax ([2]; single dose 1.67 mg/kg): 1210 ± 482 ng/mL
- MRT ([2]; single dose 1.67 mg/kg): 270 ± 60 min
- Tmax ([2]; single dose 1.67 mg/kg): 6 ± 6 min
- Vd ([2]; single dose 1.67 mg/kg): 2.03 ± 0.63 L/kg
- half-life ([2]; single dose 1.67 mg/kg): 30 ± 6 min
- AUC(0-t) ([2]; single dose 1.67 mg/kg): 669 ± 182 ng·h/mL
- clearance [2, 8]: 43.7 mL/min/kg
- clearance [3]: 1.87 mL/min
- Stability (RE) [4]: 86–99.5%

Structure (SMILES): Cc1c(Cc2ccc(F)cc2)c(=O)oc2cc(OCCOc3no[n+]([O-])c3S(=O)(=O)c3ccccc3)ccc12 [CY-14S-4A83]
- fraction unbound at 30 min ([5]; rat, fresh rat plasma): 0.0298 ± 0.002
- fraction unbound at 60 min ([5]; rat, fresh rat plasma): 0.0217 ± 0.0003
- f u ([5]; value used in the PBPK modeling): 0.02
- B/P ([6]; incubation time 30 min): 12.11 ± 0.094
- B/P ([6]; incubation time 60 min): 12.34 ± 0.03
- microsomal CLint [1]: 336 µL/min/mg
- Km at 20 min [1]: 18 ± 2.3 µM
- Vmax [1]: 6044.0 pmol/min/mg Protein and 6044.0 ± 290.8 pmol/min/mg Protein
- CLint [1]: 336.033 µL/min/mg
- plasma concentration within 24 h (stays above LLOQ) ([2]; 0.5 mg/kg): > 10 ng/mL
- clearance ([2]; 0.5 mg/kg, experimental value compared with PBPK prediction, read-out: experimental CL): 1.73 mL/min
- AUC(0-inf) ([2]; single dose 0.5 mg/kg): 1340 ± 475 ng·h/mL
- Cmax ([2]; single dose 0.5 mg/kg): 946 ± 452 ng/mL
- MRT ([2]; single dose 0.5 mg/kg): 366 ± 90 min
- Tmax ([2]; single dose 0.5 mg/kg): 12 ± 12 min
- Vd ([2]; single dose 0.5 mg/kg): 0.56 ± 0.15 L/kg
- half-life ([2]; single dose 0.5 mg/kg): 60 ± 12 min
- AUC(0-t) ([2]; single dose 0.5 mg/kg): 1310 ± 462 ng·h/mL
- clearance ([2]; single dose 0.5 mg/kg, read-out: CL (converted)): 6.91 mL/min/kg
- clearance [3]: 0.23 mL/min
- Stability (RE) [4]: 88–94.4%
